# Measurements taken from patent US8835644B2, “Broad spectrum benzothiophene-nitrothiazolide and other antimicrobials” (University of Virginia Patent Foundation, priority 2009, dated 2014).
# Where two headings read alike, the source gives them in different places.
# Columns and labels:
# S. epidermidis = assay: MIC testing by broth dilution, S. epidermidis plank; assay type: cell-based, Staphylococcus epidermidis
# How it was run: (§1)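 Compounds were diluted serially from 32 μg/ml to 0.06 in medium holding a standard inoculum, then visually scored at 24 h, and the lowest well without growth was recorded. Media were LB for E. coli, Trypticase Soy for S. epidermidis and Brain Heart Infusion for C. jejuni. C. difficile zones were measured anaerobically relative to NTZ.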
# C. difficile = assay: Disk diffusion (Kirby Bower), C. difficile; assay type: cell-based, Clostridium difficile; settings: for Disk Diff (%) C. difficile: Nitazoxanide = 100, Furan analogues table
# Description: A standard broth dilution protocol was used in 96 well microplates containing a standard dilution of the microorganism to be tested in 100 microliters of the appropriate medium. Appropriate medium: E. coli, LB medium; Staphylococcus strains, Trypticase Soy; and for H. pylori and C. jejuni, Brain Heart Infusion. The compounds to be tested were set at 32 μg/ml in 200 microliters in well one and then serially diluted to provide a range from 32 to 0.06. The wells were scored visually at 24 h. The well where there was no growth was recorded as the MIC. Clostridium difficile was tested by agar diffusion and disk diffusion (Kirby Bower) methods under anaerobic conditions on Wilkins Chalgrin agar. In these assays, zone of inhibited growth was measured and compared by relative ratio to the zone recorded for NTZ.
# (§2) Representative compounds of the invention were tested in a series of assays against a series of organisms as described above. […] The organisms tested include, C. difficile, H. pylori, C. jejuni, MRSA, S. epidermidis, and E. coli. S. epidermidis and E. coli were tested in the plank and biofilm assay. A disk diffusion assay was also used for C. difficile. Direct PFOR enzyme assays were also performed. All analogues and derivatives were not tested on every organism in every type of assay (the “-” in each table means that it was not tested).
# MRSA = assay: MIC testing by broth dilution, MRSA; assay type: cell-based, Staphylococcus aureus
# How it was run: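 Values are broth-dilution MICs, defined as the well showing no growth on visual reading after 24 h; the tested range was 32 to 0.06 μg/ml, in organism-specific media (LB, Trypticase Soy, Brain Heart Infusion). The C. difficile entries come instead from anaerobic Kirby-Bauer disk zones, normalised to NTZ.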
# E. coli = assay: MIC testing by broth dilution, E. coli plank; assay type: cell-based, Escherichia coli
# How it was run: as §1
# C. jejuni = assay: MIC testing by broth dilution, C. jejuni; assay type: cell-based, Campylobacter jejuni
# How it was run: as §1
# H. pylori = assay: MIC testing by broth dilution, H. pylori; assay type: cell-based, Helicobacter pylori
# How it was run: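 Broth dilution MIC determination against H. pylori: a standard inoculum in 100 microliters of Brain Heart Infusion medium was placed in 96 well microplates. Test compounds began at 32 μg/ml in 200 microliters in well one and were serially diluted over a 32 to 0.06 range. After 24 h, plates were scored by eye and the first well without growth was recorded as the MIC.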
# E. coli biofilm = E. coli biofilm assay (activity tables); assay type: cell-based, Escherichia coli
# How it was run: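 After 24 h static culture at 37 °C in wells containing NTZ, strain 042 (1:100 inoculum) biofilm was quantified by 0.5% crystal violet absorbance at 570 nm. Planktonic growth was taken from turbidity or LB plate counts as cfu/ml; all runs triplicate, reported as mean and SD.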
# S. epidermidis biofilm = S. epidermidis biofilm assay (activity tables); assay type: cell-based, Staphylococcus epidermidis
# Description: Staphylococcal strains were cultured overnight in TSB at 37° C. with shaking, diluted in fresh medium to an OD600 of 0.01 and 200 W was dispensed into sterile flat bottom polystyrene 96 well microtiter plates (Costar 3596, Corning Inc.). […] Each compound and dilution was tested in triplicate. The plates were incubated overnight at 37° C. in a humidified incubator, without shaking and both growth and biofilm accumulation were determined at 16 h.
# Following recording of turbidities, the culture medium was aspirated and the wells were washed three times with distilled water, blotted on paper towels, and fixed with 75% ethanol for 10 minutes.
# To visualize biofilm material, 0.5% crystal violet was added to each well and after 5 minutes was removed and the wells washed three times with distilled water. Plates were read using a microplate reader at a wavelength of 570 nm. The dye was then extracted by adding 200 W of 95% ethanol, and the absorbance was read again at 570 nm. All assays were performed in triplicate and the mean and standard deviation determined. […]
# as §2
# [1] = broth dilution, Trypticase Soy, 24 h, read-out: MIC (μM) S. epidermidis Plank
# [2] = broth dilution, Trypticase Soy, 24 h, read-out: MIC (μM) MRSA
# [3] = broth dilution, LB medium, 24 h, read-out: MIC (μM) E. coli Plank
# [4] = broth dilution, Brain Heart Infusion, 24 h, read-out: MIC (μM) C. jejuni
# [5] = broth dilution, Brain Heart Infusion, 24 h, read-out: MIC (μM) H. pylori
# [6] = biofilm; read-out: MIC (μM) E. coli Biofilm
# [7] = planktonic, Furan analogues table, read-out: MIC S. epidermidis Plank
# [8] = Furan analogues table, read-out: MIC MRSA
# [9] = planktonic, Furan analogues table, read-out: MIC E. coli Plank
# [10] = Furan analogues table, read-out: MIC C. jejuni
# [11] = Furan analogues table, read-out: MIC H. pylori
# [12] = biofilm; Furan analogues table; read-out: MIC E. coli Biofilm
# [13] = Staphylococcus epidermidis, planktonic, Furan analogues table, read-out: MIC S. epidermidis Plank
# [14] = Staphylococcus aureus, MRSA, Furan analogues table, read-out: MIC MRSA
# [15] = Escherichia coli, planktonic, Furan analogues table, read-out: MIC E. coli Plank
# [16] = Campylobacter jejuni, Furan analogues table, read-out: MIC C. jejuni
# [17] = Helicobacter pylori, Furan analogues table, read-out: MIC H. pylori
# [18] = Escherichia coli; biofilm; Furan analogues table; read-out: MIC E. coli Biofilm
compound,measurement,setting,value
CCCCCCCC(=O)Nc1ncc([N+](=O)[O-])s1 [VPC16b1046],MIC,S. epidermidis; [1],11.1 µM
same,Disk Diffusion (%) C. difficile,C. difficile; zone of inhibited growth as relative ratio to the zone for NTZ,54 ± 4%
same,MIC,MRSA; [2],59.0 µM
same,MIC,E. coli; [3],117.9 µM
same,MIC,C. jejuni; [4],106.9 µM
same,MIC,H. pylori; [5],0.8 µM
same,MIC,E. coli biofilm; [6],88.4 µM
same,MIC (μM) S. epidermidis Biofilm,S. epidermidis biofilm,7.4 µM
O=C(Nc1ncc([N+](=O)[O-])s1)c1ccccc1C(F)(F)F [VPC161182],MIC,S. epidermidis; [1],25.2 µM
same,MIC,MRSA; [2],25.2 µM
same,MIC,E. coli; [3],100.9 µM
same,MIC,C. jejuni; [4],18.9 µM
same,MIC,H. pylori; [5],1.6 µM
same,MIC,E. coli biofilm; [6],100.9 µM
same,MIC (μM) S. epidermidis Biofilm,S. epidermidis biofilm,50.4 µM
O=C(Nc1ncc([N+](=O)[O-])s1)c1ccc(-c2ccc([N+](=O)[O-])cc2)o1 [VPC161189],MIC,S. epidermidis; [7],11.1 µM
same,MIC,MRSA; [8],88.8 µM
same,MIC,E. coli; [9],88.8 µM
same,MIC,C. jejuni; [10],16.7 µM
same,MIC,H. pylori; [11],6.9 µM
same,MIC,E. coli biofilm; [12],88.8 µM
same,MIC S. epidermidis Biofilm,S. epidermidis biofilm; Furan analogues table,11.1 µM
O=C(Nc1ncc([N+](=O)[O-])s1)c1ccc(-c2cccc([N+](=O)[O-])c2)o1 [VPC161190],MIC,S. epidermidis; [7],11.1 µM
same,MIC,MRSA; [8],44.4 µM
same,MIC,E. coli; [9],88.8 µM
same,MIC,C. jejuni; [10],16.7 µM
same,MIC,H. pylori; [11],6.9 µM
same,MIC,E. coli biofilm; [12],88.8 µM
same,MIC S. epidermidis Biofilm,S. epidermidis biofilm; Furan analogues table,11.1 µM
COc1ccccc1C(=O)Nc1ncc([N+](=O)[O-])s1 [VPC161192],MIC,S. epidermidis; [1],114.6 µM
same,MIC,MRSA; [2],114.6 µM
same,MIC,E. coli; [3],114.6 µM
same,MIC,C. jejuni; [4],17.9 µM
same,MIC,H. pylori; [5],1.8 µM
same,MIC,E. coli biofilm; [6],57.3 µM
same,MIC (μM) S. epidermidis Biofilm,S. epidermidis biofilm,114.6 µM
"O=C(Nc1ncc([N+](=O)[O-])s1)c1ccc(-c2ccccc2C(F)(F)F)o1 [VPC161196, N-(5-Nitrothiazol-2-yl)-5-(2-(trifluoromethyl)phenyl)furan-2-carboxamide]",MIC,S. epidermidis; [13],5.7 µM
same,Disk Diff (%) C. difficile,C. difficile,70.5 ± 0.5%
same,MIC,MRSA; [14],2.8 µM
same,MIC,E. coli; [15],90.8 µM
same,MIC,C. jejuni; [16],8.5 µM
same,MIC,H. pylori; [17],1.1 µM
same,MIC,E. coli biofilm; [18],90.8 µM
same,MIC S. epidermidis Biofilm,S. epidermidis biofilm; Furan analogues table,5.7 µM
O=C(Nc1ncc([N+](=O)[O-])s1)c1ccc(-c2cccc(C(F)(F)F)c2)o1 [VPC161197],MIC,S. epidermidis; [7],5.7 µM
same,MIC,MRSA; [8],11.4 µM
same,MIC,E. coli; [9],90.8 µM
same,MIC,C. jejuni; [10],8.5 µM
same,MIC,H. pylori; [11],1.1 µM
same,MIC,E. coli biofilm; [12],90.8 µM
same,MIC S. epidermidis Biofilm,S. epidermidis biofilm; Furan analogues table,5.7 µM
O=C(Nc1ccc(F)cc1)Nc1ncc([N+](=O)[O-])s1 [VPC161267],MIC,"S. epidermidis; Staphylococcus epidermidis, broth dilution, Trypticase Soy, 24 h, read-out: MIC (μM) S. epidermidis Plank",28.3 µM
same,MIC,"MRSA; Staphylococcus aureus, MRSA, broth dilution, Trypticase Soy, 24 h, read-out: MIC (μM) MRSA",56.7 µM
same,MIC,"E. coli; Escherichia coli, broth dilution, LB medium, 24 h, read-out: MIC (μM) E. coli Plank",113 µM
same,MIC,"C. jejuni; Campylobacter jejuni, broth dilution, Brain Heart Infusion, 24 h, read-out: MIC (μM) C. jejuni",21.3 µM
same,MIC,"H. pylori; Helicobacter pylori, broth dilution, Brain Heart Infusion, 24 h, read-out: MIC (μM) H. pylori",0.9 µM
same,MIC,E. coli biofilm; Escherichia coli; read-out: MIC (μM) E. coli Biofilm,56.7 µM
same,MIC (μM) S. epidermidis Biofilm,S. epidermidis biofilm,28.3 µM
"O=C(CCCC(=O)Nc1ncc([N+](=O)[O-])s1)Nc1ncc([N+](=O)[O-])s1 [VPC161276, N^1,N^5-Bis(5-nitrothiazol-2-yl)glutaramide]",MIC,"S. epidermidis; Staphylococcus epidermidis, 24 h, read-out: MIC (μM) S. epidermidis Plank",82.8 µM
same,MIC,"MRSA; Staphylococcus aureus, MRSA, 24 h, read-out: MIC (μM) MRSA",82.8 µM
same,MIC,"E. coli; Escherichia coli, 24 h, read-out: MIC (μM) E. coli Plank",82.8 µM
same,MIC,"C. jejuni; Campylobacter jejuni, 24 h, read-out: MIC (μM) C. jejuni",31.1 µM
same,MIC,"H. pylori; Helicobacter pylori, 24 h, read-out: MIC (μM) H. pylori",5.2 µM
same,MIC,"E. coli biofilm; Escherichia coli, read-out: MIC (μM) E. coli Biofilm",82.8 µM
same,MIC (μM) S. epidermidis Biofilm,S. epidermidis biofilm,1.3 µM
Cc1ncc([N+](=O)[O-])n1CCOC(=O)CCCC(=O)Nc1ncc([N+](=O)[O-])s1 [VPC161277],MIC,S. epidermidis; [1],77.6 µM
same,MIC,MRSA; [2],77.6 µM
same,MIC,E. coli; [3],77.6 µM
same,MIC,C. jejuni; [4],29.1 µM
same,MIC,H. pylori; [5],1.8 µM
same,MIC,E. coli biofilm; [6],77.6 µM
same,MIC (μM) S. epidermidis Biofilm,S. epidermidis biofilm,2.4 µM
O=C(Nc1ncc([N+](=O)[O-])s1)c1ncc([N+](=O)[O-])s1 [VPC161280],MIC,"S. epidermidis; planktonic, Thiophene analogues table, read-out: MIC S. epidermidis Plank",5.0 µM
same,MIC,"MRSA; Thiophene analogues table, read-out: MIC MRSA",53.1 µM
same,MIC,"E. coli; planktonic, Thiophene analogues table, read-out: MIC E. coli Plank",39.8 µM
same,MIC,"C. jejuni; Thiophene analogues table, read-out: MIC C. jejuni",13.3 µM
same,MIC,"H. pylori; Thiophene analogues table, read-out: MIC H. pylori",6.6 µM
same,MIC,E. coli biofilm; biofilm; Thiophene analogues table; read-out: MIC E. coli Biofilm,3.3 µM
same,MIC S. epidermidis Biofilm,S. epidermidis biofilm; Thiophene analogues table,6.6 µM
"O=C(Nc1ncc([N+](=O)[O-])s1)c1ccc(Br)o1 [VPC161281, 5-Bromo-N-(5-nitrothiazol-2-yl)furan-2-carboxamide]",MIC,S. epidermidis; [13],25.1 µM
same,Disk Diff (%) C. difficile,C. difficile,92%
same,MIC,MRSA; [14],6.3 µM
same,MIC,E. coli; [15],101 µM
same,MIC,C. jejuni; [16],12.6 µM
same,MIC,H. pylori; [17],1.6 µM
same,MIC,E. coli biofilm; [18],0.4 µM
same,MIC S. epidermidis Biofilm,S. epidermidis biofilm; Furan analogues table,50.3 µM
